# According to ChEMBL document CHEMBL1137403, “Discovery of 2-[4-{{2-(2S,5R)-2-cyano-5-ethynyl-1-pyrrolidinyl]-2-oxoethyl]amino]- 4-methyl-1-piperidinyl]-4-pyridinecarboxylic acid (ABT-279): a very potent, selective, effective, and well-tolerated inhibitor of dipeptidyl peptidase-IV, useful for the treatment of diabetes” (J Med Chem, 2006):
# Tests used:
# [1] = molecular target: Dipeptidyl peptidase 9 (Homo sapiens, UniProt Q86TI2)
# [2] = molecular target: Dipeptidyl peptidase 8 (Homo sapiens, UniProt Q6V1X1)
# [3] = molecular target: Dipeptidyl peptidase 2 (Homo sapiens, UniProt Q9UHL4); assay: Inhibition of DPP7
# [4] = molecular target: T1, Prolyl endopeptidase (Homo sapiens, UniProt P48147); assay: Inhibition of POP
# T1 sequence (P48147 whole entry): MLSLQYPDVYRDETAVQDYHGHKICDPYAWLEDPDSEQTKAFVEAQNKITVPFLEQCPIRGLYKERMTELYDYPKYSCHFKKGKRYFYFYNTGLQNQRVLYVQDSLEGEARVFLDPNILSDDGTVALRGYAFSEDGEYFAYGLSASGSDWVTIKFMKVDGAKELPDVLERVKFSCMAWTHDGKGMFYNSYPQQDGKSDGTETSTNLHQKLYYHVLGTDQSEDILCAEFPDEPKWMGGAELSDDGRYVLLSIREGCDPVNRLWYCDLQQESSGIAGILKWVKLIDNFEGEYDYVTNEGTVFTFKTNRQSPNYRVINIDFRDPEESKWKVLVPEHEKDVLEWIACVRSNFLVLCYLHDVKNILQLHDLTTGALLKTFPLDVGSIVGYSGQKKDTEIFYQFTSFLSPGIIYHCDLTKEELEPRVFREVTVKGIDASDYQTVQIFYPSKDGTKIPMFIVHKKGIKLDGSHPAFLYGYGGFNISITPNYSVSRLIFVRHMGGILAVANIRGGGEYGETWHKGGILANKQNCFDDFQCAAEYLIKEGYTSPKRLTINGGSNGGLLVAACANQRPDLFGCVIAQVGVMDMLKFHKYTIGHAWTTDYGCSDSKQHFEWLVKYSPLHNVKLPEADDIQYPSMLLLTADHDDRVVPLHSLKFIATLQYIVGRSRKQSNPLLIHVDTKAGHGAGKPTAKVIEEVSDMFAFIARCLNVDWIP
# [5] = molecular target: T2, Prolyl endopeptidase FAP (Homo sapiens, UniProt Q12884); assay: Inhibition of FAPalpha
# T2 sequence (Q12884 whole entry): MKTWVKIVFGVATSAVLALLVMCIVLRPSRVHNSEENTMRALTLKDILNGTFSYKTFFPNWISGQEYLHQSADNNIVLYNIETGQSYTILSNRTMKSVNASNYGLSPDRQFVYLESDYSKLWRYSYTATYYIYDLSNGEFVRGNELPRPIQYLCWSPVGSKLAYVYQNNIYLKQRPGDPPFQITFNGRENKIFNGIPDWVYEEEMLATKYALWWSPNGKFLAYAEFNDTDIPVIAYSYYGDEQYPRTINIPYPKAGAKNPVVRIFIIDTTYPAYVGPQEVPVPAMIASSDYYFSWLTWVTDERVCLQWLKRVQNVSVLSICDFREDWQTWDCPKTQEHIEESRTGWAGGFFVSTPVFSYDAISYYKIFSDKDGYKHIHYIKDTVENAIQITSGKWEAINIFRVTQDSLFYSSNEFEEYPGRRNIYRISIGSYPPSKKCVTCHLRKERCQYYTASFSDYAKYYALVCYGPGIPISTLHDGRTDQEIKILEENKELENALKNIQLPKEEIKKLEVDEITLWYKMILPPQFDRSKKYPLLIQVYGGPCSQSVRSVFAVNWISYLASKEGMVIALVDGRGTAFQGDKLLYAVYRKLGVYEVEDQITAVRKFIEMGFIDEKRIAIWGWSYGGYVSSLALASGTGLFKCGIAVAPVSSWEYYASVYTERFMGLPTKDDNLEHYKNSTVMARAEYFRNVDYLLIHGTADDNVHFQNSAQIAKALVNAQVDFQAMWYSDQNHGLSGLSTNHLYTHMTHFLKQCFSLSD
# Chain of Dipeptidyl peptidase 8 (Q6V1X1 whole entry): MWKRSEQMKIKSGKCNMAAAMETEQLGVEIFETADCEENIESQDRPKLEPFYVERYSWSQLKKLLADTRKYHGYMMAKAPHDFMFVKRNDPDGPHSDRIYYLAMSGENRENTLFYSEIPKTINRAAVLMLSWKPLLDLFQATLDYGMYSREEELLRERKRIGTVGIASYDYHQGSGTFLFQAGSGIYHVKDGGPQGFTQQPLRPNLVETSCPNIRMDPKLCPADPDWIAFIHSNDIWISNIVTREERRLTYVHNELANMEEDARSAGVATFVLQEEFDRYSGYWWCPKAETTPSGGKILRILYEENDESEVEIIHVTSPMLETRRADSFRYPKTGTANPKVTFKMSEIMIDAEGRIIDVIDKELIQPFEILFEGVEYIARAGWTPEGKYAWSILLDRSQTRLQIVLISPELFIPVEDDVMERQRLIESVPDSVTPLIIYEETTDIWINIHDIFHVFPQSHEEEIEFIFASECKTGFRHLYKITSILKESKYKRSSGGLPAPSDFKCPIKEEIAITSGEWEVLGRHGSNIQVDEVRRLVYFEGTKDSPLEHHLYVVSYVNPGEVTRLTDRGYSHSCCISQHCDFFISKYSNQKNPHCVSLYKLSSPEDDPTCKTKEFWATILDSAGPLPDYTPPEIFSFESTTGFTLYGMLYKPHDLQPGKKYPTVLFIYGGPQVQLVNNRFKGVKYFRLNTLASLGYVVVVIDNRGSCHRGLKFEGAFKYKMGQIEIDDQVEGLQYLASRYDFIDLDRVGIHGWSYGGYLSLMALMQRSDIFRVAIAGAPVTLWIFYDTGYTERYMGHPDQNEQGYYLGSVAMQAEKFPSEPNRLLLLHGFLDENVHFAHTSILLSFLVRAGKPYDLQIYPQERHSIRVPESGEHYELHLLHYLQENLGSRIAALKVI
# Chain of Dipeptidyl peptidase 9 (Q86TI2 whole entry): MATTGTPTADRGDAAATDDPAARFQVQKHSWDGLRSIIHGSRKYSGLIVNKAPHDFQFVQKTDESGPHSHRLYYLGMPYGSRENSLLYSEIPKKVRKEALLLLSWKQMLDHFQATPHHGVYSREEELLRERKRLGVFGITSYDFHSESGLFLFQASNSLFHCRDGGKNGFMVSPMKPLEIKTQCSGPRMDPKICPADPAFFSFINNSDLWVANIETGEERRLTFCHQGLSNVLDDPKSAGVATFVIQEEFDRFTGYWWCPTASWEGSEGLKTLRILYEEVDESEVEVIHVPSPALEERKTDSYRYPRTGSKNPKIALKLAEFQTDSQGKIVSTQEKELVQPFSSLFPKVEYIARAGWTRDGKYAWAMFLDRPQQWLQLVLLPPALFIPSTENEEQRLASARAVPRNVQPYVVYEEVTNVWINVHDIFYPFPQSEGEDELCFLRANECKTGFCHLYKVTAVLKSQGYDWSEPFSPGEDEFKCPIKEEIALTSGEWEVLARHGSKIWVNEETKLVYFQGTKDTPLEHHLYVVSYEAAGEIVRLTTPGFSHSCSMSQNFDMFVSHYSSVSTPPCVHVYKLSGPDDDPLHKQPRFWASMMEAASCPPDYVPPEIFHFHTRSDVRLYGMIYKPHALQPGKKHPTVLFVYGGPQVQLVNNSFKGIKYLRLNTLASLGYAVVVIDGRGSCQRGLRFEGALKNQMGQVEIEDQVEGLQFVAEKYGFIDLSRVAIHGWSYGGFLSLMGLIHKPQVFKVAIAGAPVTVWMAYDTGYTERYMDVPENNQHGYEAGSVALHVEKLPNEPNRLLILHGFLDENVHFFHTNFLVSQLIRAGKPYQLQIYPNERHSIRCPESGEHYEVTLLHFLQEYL
Ki [1] [µM],Ki [2] [µM],Ki [3] [µM],Ki [4] [µM],Ki [5] [µM],Structure (SMILES)
> 30,> 30,–,–,–,C#C[C@H]1CC[C@@H](C#N)N1C(=O)CNC(C)(C)C
> 30,> 30,–,–,–,C#C[C@H]1CC[C@@H](C#N)N1C(=O)CNC1CCCC1
> 30,> 30,> 30,> 30,> 30,C#C[C@H]1CC[C@@H](C#N)N1C(=O)CNC1(C)CCN(c2ccc(C(=O)O)cn2)CC1
> 30,–,–,–,–,C#C[C@H]1CC[C@@H](C#N)N1C(=O)[C@@H](N)C1CCCC1
